Test results taken from patent US20080027117A1, “Antifungal Azole Derivatives Having a Fluorovinyl Moiety and Process for the Preparation Thereof” (KOREA RESERACH INSTIITUTE OF CHEMICAL TECHNOLOGY, priority 2003, published 2008).
In brackets after ≈: the same amount, converted by molar mass. Where two headings read alike, the source gives them in different places. One block for each molecule: values may come before it.

How the values were obtained:
[1] = biological target: T1, CYP 1A2 (Homo sapiens, UniProt P05177); assay: Hepatic toxicity: Phenacetin O-deethylase in human hepatic microsomes
T1 sequence (P05177 1-516): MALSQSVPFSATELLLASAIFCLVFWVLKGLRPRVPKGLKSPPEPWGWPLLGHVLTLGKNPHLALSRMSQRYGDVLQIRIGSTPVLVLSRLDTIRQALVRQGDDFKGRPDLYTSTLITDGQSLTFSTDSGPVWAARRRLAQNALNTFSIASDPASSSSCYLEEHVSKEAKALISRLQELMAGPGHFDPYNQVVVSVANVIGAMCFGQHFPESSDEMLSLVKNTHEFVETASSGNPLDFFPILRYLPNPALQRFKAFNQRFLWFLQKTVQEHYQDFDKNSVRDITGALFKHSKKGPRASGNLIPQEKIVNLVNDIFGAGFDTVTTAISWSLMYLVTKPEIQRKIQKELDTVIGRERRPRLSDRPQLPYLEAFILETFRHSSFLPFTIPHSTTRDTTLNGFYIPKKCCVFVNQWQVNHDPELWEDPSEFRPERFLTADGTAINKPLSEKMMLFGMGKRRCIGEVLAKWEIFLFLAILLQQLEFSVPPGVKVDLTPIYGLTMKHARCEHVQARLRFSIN
Description: (§1) After incubating at 37° C. for 20 min, 200 μl of each resulting solution was mixed with 100 μl of acetonitrile, and analyzed with LC-MS (LC column: Luna2 C8, 2×100 mm, flow velocity: 0.2 ml/min, MS system: Quattro LC (micromass)) using a 5% MeOH aqueous solution containing 0.1% formic acid as an eluent.

[2] = biological target: T2, CYP 2A6 (Homo sapiens, UniProt P11509); assay: Hepatic toxicity: Coumarin 7-hydroxylase in human hepatic microsomes
T2 sequence (P11509 1-494): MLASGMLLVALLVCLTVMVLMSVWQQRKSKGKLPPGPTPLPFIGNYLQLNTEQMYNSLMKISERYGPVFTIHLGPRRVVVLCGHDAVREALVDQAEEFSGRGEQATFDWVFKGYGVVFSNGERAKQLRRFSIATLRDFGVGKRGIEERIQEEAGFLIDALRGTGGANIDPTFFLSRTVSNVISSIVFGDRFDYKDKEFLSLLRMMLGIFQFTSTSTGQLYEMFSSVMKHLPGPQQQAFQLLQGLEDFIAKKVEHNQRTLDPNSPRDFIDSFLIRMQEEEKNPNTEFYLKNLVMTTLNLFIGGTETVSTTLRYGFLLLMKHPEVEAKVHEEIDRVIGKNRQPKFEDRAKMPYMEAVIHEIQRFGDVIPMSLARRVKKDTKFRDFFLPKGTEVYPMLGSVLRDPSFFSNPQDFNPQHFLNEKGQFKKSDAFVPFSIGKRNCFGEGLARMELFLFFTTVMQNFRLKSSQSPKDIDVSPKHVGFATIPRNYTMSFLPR
Description: as §1

[3] = biological target: T3, CYP 2C8 (Homo sapiens, UniProt P10632); assay: Hepatic toxicity: Paclitaxel 6 α-hydroxylase in human hepatic microsomes
T3 sequence (P10632 1-490): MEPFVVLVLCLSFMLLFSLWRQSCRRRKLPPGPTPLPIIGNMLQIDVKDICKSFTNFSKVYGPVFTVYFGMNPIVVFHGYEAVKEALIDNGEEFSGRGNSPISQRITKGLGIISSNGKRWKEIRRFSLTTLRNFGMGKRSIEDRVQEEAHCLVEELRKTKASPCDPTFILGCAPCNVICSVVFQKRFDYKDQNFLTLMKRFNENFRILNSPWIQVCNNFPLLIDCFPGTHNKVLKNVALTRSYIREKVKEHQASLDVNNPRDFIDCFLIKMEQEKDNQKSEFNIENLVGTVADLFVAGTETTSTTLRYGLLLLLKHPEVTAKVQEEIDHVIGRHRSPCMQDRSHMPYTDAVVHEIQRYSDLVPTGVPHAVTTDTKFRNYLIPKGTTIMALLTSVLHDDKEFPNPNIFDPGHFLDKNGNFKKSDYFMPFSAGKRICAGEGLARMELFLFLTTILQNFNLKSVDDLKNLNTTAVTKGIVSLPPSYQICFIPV
Description: as §1

[4] = biological target: CYP 2C9 (Homo sapiens, UniProt P11712); assay: Hepatic toxicity: Diclofenac 4′-hydroxylase in human hepatic microsomes
Description: as §1

[5] = biological target: CYP 2C19 (Homo sapiens, UniProt P33261); assay: Hepatic toxicity: Mephenytoin 4-hydroxylase in human hepatic microsomes
Description: as §1

[6] = biological target: CYP 2D6 (Homo sapiens, UniProt P10635); assay: Hepatic toxicity: Bufuralol 1′-hydroxylase in human hepatic microsomes
Description: as §1

[7] = biological target: CYP 3A4 (Homo sapiens, UniProt P08684); assay: Hepatic toxicity: Midazolam 1′-hydroxylase in human hepatic microsomes; details: read-out: IC50 Midazolam 1′-hydroxylase CYP 3A4; human hepatic microsomes 0.5 mg/ml, 37° C., 20 min, LC-MS
Description: as §1

[8] = system: A. fumigatus ATCC 16424; assay: In vitro antifungal activity, microbroth dilution (MIC80); type: cell-based; details: lowest concentration reducing growth by 80% relative to untreated control; RPMI-1640, 35° C.
Description: (§2) Sabourad Dextrose Agar (Difco), YM Agar or Potato Dextrose Agar was used as a culture medium according to ATCC information, and RPMI-1640 broth (Sigma. Co. w/L-glutamine, wo/NaHCO3)(0.165 M MOPS, pH 7.0), as a dilution medium. […] In the case of yeasts, the turbidity (light absorbance) of the suspension was adjusted to 0.108 at 530 nm, and then the suspension was diluted 1000-fold with sterile RPMI-1640 liquid medium to 1.0103˜5.0103 CFU/ml. The turbidity of fungi was adjusted to 80˜82% and the suspension was diluted 50-fold to 0.4102˜0.5104 CFU/ml. […] 0.1 ml portions of the test solutions were added to the wells of a sterile 96 well plate. Then, 0.1 ml portions of each test strain solutions were added successively to the wells and the plate was incubated at 35° C. for […]. Minimal inhibitory concentration (MIC80) of each compound was determined as the lowest concentration of the test compounds required to reduce growth by 80% relative to a control strain not treated.

[9] = system: C. neoformans ATCC 36556; assay: as above; type: cell-based; details: lowest concentration reducing growth by 80% relative to untreated control; RPMI-1640, 35° C.
Description: as §2

[10] = system: Candida albicans ATCC 10231; assay: as above; type: cell-based; details: lowest concentration reducing growth by 80% relative to untreated control; RPMI-1640, 35° C.
Description: as §2

[11] = system: Candida albicans MYA-573; assay: as above; type: cell-based; details: lowest concentration reducing growth by 80% relative to untreated control; RPMI-1640, 35° C.
Description: as §2

[12] = system: Candida krusei ATCC 6258; assay: as above; type: cell-based; details: lowest concentration reducing growth by 80% relative to untreated control; RPMI-1640, 35° C.
Description: as §2

[13] = system: ICR mice; assay: Toxicity of oral administration; type: in vivo; details: oral administration in DMSO, observed over 2 weeks
Description: Specific pathogen-free ICR mice, 2 females and 2 males were used for the each testing. The compound of Example 40 of the present invention was dissolved in DMSO and the solution was orally administered in doses of 62, 125, 250, 500, 1,000 and 2,000 mg of the compound/kg of the body weight (10 ml of the sample volume/kg of the body weight).

Chain of CYP 3A4 (P08684 whole entry): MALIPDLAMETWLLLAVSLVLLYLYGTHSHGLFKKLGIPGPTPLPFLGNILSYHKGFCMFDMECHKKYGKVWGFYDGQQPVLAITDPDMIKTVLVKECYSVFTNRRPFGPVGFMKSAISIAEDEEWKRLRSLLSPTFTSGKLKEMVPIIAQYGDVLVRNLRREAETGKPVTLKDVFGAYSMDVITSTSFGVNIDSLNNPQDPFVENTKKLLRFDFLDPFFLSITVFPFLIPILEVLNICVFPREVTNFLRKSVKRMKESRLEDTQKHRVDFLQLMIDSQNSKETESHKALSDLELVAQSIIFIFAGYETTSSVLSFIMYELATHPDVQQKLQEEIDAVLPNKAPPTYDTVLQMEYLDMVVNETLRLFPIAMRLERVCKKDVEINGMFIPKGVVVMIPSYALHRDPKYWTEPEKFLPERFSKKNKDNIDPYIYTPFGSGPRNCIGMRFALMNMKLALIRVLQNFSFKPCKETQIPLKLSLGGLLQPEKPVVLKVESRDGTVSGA
Chain of CYP 2C19 (P33261 whole entry): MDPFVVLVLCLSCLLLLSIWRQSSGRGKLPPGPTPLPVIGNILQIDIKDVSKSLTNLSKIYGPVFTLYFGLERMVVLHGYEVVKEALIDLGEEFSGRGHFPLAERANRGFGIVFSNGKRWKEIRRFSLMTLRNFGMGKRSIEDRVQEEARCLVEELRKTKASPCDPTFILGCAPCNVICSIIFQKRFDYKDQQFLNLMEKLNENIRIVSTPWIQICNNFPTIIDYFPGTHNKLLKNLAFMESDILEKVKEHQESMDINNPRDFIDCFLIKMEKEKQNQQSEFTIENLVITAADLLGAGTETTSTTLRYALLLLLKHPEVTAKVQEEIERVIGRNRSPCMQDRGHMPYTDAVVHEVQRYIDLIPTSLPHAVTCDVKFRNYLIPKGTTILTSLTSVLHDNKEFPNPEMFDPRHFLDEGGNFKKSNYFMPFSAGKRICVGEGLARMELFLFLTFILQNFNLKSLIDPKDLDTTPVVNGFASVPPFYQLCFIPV
Chain of CYP 2C9 (P11712 whole entry): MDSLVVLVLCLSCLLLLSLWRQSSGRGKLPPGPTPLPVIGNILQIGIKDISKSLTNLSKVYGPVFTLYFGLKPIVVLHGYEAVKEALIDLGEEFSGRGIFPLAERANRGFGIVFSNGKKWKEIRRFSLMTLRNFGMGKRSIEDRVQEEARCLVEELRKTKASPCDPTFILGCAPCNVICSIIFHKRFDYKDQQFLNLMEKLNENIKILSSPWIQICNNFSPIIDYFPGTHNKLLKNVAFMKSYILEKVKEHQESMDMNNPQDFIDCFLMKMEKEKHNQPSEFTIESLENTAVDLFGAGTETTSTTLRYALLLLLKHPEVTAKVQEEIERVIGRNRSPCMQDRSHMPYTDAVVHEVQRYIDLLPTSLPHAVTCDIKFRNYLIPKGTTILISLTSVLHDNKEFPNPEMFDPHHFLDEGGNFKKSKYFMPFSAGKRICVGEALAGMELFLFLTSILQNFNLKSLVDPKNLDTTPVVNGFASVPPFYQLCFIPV
Chain of CYP 2D6 (P10635 whole entry): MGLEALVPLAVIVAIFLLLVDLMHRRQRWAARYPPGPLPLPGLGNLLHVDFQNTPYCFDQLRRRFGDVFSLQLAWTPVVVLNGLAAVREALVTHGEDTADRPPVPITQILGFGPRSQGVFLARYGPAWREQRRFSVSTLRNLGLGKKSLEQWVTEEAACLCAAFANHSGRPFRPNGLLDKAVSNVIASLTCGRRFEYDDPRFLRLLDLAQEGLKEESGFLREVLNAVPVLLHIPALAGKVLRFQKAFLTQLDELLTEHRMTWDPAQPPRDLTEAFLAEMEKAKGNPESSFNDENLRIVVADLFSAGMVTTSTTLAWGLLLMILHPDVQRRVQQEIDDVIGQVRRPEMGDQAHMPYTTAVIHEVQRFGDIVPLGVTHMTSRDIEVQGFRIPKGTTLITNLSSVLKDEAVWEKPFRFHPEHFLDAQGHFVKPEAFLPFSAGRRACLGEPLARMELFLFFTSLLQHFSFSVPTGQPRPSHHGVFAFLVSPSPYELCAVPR

MIC Range (MIC80) A. fumigatus ATCC 16424 [8]: >256 µg/mL | MIC Range (MIC80) C. neoformans ATCC 36556 [9]: 0.5 µg/mL (≈ 1.04 µM) | MIC Range (MIC80) Candida albicans ATCC 10231 [10]: 1 µg/mL (≈ 2.08 µM) | MIC Range (MIC80) Candida albicans MYA-573 [11]: 1 µg/mL (≈ 2.08 µM) | MIC Range (MIC80) Candida krusei ATCC 6258 [12]: 4 µg/mL (≈ 8.31 µM)
Structure (SMILES): CC(OC(F)=Cc1ccc(Oc2ccccc2)cc1)C(O)(Cn1cncn1)c1ccc(F)cc1F (stereo not drawn) [Example 15]

MIC Range (MIC80) C. neoformans ATCC 36556 [9]: 16~32 μg/ml | MIC Range (MIC80) Candida albicans ATCC 10231 [10]: 2~4 μg/ml | MIC Range (MIC80) Candida krusei ATCC 6258 [12]: 32~64 μg/ml
Structure (SMILES): OC(Cn1cncn1)(Cn1cncn1)c1ccc(F)cc1F [Fluconazole, reference compound]
IC50 [1]: > 100 µM | IC50 [2]: > 100 µM | IC50 [3]: > 100 µM | IC50 [6]: 44.2 µM

MIC Range (MIC80) A. fumigatus ATCC 16424 [8]: >16 µg/mL | MIC Range (MIC80) C. neoformans ATCC 36556 [9]: 4 µg/mL (≈ 8.75 µM) | MIC Range (MIC80) Candida albicans ATCC 10231 [10]: 2~4 μg/ml | MIC Range (MIC80) Candida albicans MYA-573 [11]: >256 µg/mL | MIC Range (MIC80) Candida krusei ATCC 6258 [12]: >16 µg/mL
Structure (SMILES): CC(OC(F)=C(c1ccccc1)C(F)(F)F)C(O)(Cn1cncn1)c1ccc(F)cc1F (stereo not drawn) [Example 5]

MIC Range (MIC80) A. fumigatus ATCC 16424 [8]: >64 µg/mL | MIC Range (MIC80) C. neoformans ATCC 36556 [9]: 16 µg/mL (≈ 32.8 µM) | MIC Range (MIC80) Candida albicans ATCC 10231 [10]: >64 µg/mL | MIC Range (MIC80) Candida krusei ATCC 6258 [12]: >64 µg/mL
Structure (SMILES): COc1cccc(C(=C(F)OC(C)C(O)(Cn2cncn2)c2ccc(F)cc2F)C(F)(F)F)c1 (stereo not drawn) [Example 13]

Continued, molecule first:

Structure (SMILES): CC(n1ccn(-c2ccc(OC(F)=C(c3ccc(Cl)cc3)C(F)(F)F)cc2)c1=O)C(O)(Cn1cncn1)c1ccc(F)cc1F (mixture of isomers) [Example 121]
IC50 ([1]; microsomes): > 100 µM | IC50 ([2]; microsomes): > 100 µM | IC50 ([3]; microsomes): 41.2 µM | IC50 ([4]; microsomes): > 100 µM | IC50 ([5]; microsomes): > 100 µM | IC50 ([6]; microsomes): > 100 µM | IC50 [7]: > 100 µM

Structure (SMILES): COc1ccc(C(=C(F)Oc2ccc(-c3ncn(C(C)C(O)(Cn4cncn4)c4ccc(F)cc4F)n3)cc2)C(F)(F)F)cc1 (stereo not drawn) [Example 32]
IC50 ([1]; read-out: IC50 Phenacetin O-deethylase CYP 1A2, human hepatic microsomes 0.5 mg/ml, 37° C., 20 min, LC-MS): > 100 µM | IC50 ([2]; read-out: IC50 Coumarin 7-hydroxylase CYP 2A6, human hepatic microsomes 0.5 mg/ml, 37° C., 20 min, LC-MS): > 100 µM | IC50 ([3]; read-out: IC50 Paclitaxel 6 α-hydroxylase CYP 2C8, human hepatic microsomes 0.5 mg/ml, 37° C., 20 min, LC-MS): 19.9 µM | IC50 ([4]; read-out: IC50 Diclofenac 4′-hydroxylase CYP 2C9, human hepatic microsomes 0.5 mg/ml, 37° C., 20 min, LC-MS): > 100 µM | IC50 ([5]; read-out: IC50 Mephenytoin 4-hydroxylase CYP 2C19, human hepatic microsomes 0.5 mg/ml, 37° C., 20 min, LC-MS): > 100 µM | IC50 ([6]; read-out: IC50 Bufuralol 1′-hydroxylase CYP 2D6, human hepatic microsomes 0.5 mg/ml, 37° C., 20 min, LC-MS): > 100 µM | IC50 [7]: > 100 µM

Structure (SMILES): CC(N1CCN(c2ccc(OC(F)=Cc3cccc(Cl)c3)cc2)C1=O)C(O)(Cn1cncn1)c1ccc(F)cc1F (mixture of isomers) [Example 111]
IC50 ([1]; microsomes): > 100 µM | IC50 ([2]; microsomes): > 100 µM | IC50 ([3]; microsomes): > 100 µM | IC50 ([4]; microsomes): > 100 µM | IC50 ([5]; microsomes): > 100 µM | IC50 ([6]; microsomes): > 100 µM | IC50 [7]: > 100 µM

Structure (SMILES): C[C@@H]1[C@H](O)[C@@H](C)/C=C/C=C/C=C/C=C/C=C/C=C/C=C/[C@H](O[C@@H]2O[C@H](C)[C@@H](O)[C@H](N)[C@@H]2O)C[C@@H]2O[C@](O)(C[C@@H](O)C[C@@H](O)[C@H](O)CC[C@@H](O)C[C@@H](O)CC(=O)O[C@H]1C)C[C@H](O)[C@H]2C(=O)O [Amphotericine B, reference compound]
MIC Range (MIC80) A. fumigatus ATCC 16424 [8]: 0.5~1 μg/ml | MIC Range (MIC80) C. neoformans ATCC 36556 [9]: 0.25~1 μg/ml | MIC Range (MIC80) Candida albicans ATCC 10231 [10]: 0.5~1 μg/ml | MIC Range (MIC80) Candida albicans MYA-573 [11]: 1~2 μg/ml | MIC Range (MIC80) Candida krusei ATCC 6258 [12]: 1 µg/mL (≈ 1.08 µM)

Structure (SMILES): CC(n1cnc(-c2ccc(OC(F)=Cc3ccc(Cl)cc3)cc2)n1)C(O)(Cn1cncn1)c1ccc(F)cc1F (stereo not drawn) [Example 40]
IC50 ([1]; microsomes): > 100 µM | IC50 ([2]; microsomes): > 100 µM | IC50 ([3]; microsomes): 30.1 µM | IC50 ([4]; microsomes): > 100 µM | IC50 ([5]; microsomes): > 100 µM | IC50 ([6]; microsomes): > 100 µM | IC50 [7]: > 100 µM | LD50 [13]: approximately 1,750 mg/kg | fetal dose [13]: 1,000˜2,000 mg/kg

Structure (SMILES): CC(=O)N1CCN(c2ccc(OCC3COC(Cn4ccnc4)(c4ccc(Cl)cc4Cl)O3)cc2)CC1 (stereo not drawn) [ketoconazole, reference compound]
IC50 [2]: > 100 µM
